Reference: patent US6737383B1, “Herbicidal oxadiazolidines” (priority 1999, dated 2004)

Legend:
blackgrass = assay: Test B pre/postemergence blackgrass; type: in vivo, Alopecurus myosuroides
Method in brief: (§1)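 Test chemicals in a non-phytotoxic solvent mixture with surfactant were sprayed preemergence onto planted seeds and postemergence onto plants 2 to 18 cm tall (1- to 4-leaf stage). After twelve to sixteen days in a greenhouse, injury was visually rated against untreated controls from 0 (no effect) to 10 (complete control).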

surinam grass = assay: Test B pre/postemergence surinam grass; type: in vivo, Brachiaria decumbens
Method in brief: as §1

cocklebur = assay: Test B pre/postemergence cocklebur; type: in vivo, Xanthium strumarium
Method in brief: as §1

corn = assay: Test B pre/postemergence corn; type: in vivo, Zea mays
Method in brief: as §1

crabgrass = assay: Test B pre/postemergence crabgrass; type: in vivo, Digitaria sanguinalis
Method in brief: as §1

giant foxtail = assay: Test B pre/postemergence giant foxtail; type: in vivo, Setaria faberii
Method in brief: as §1

pigweed = assay: Test B pre/postemergence pigweed; type: in vivo, Amaranthus retroflexus
Method in brief: as §1

rape = assay: Test B pre/postemergence rape; type: in vivo, Brassica napus
Method in brief: as §1

soybean = assay: Test B pre/postemergence soybean; type: in vivo, Glycine max
Method in brief: as §1

sugar beet = assay: Test B pre/postemergence sugar beet; type: in vivo, Beta vulgaris
Method in brief: as §1

wheat = assay: Test B pre/postemergence wheat; type: in vivo, Triticum aestivum
Method in brief: as §1

purple nutsedge = assay: Test B pre/postemergence purple nutsedge; type: in vivo, Cyperus rotundus
Method in brief: as §1

rice = assay: Test B flood test rice; type: in vivo, Oryza sativa
Method in brief: (§2)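 Read-out is a visual response score from 0 (no effect) to 10 (complete control), assigned by comparison with untreated controls. Treatment was applied at the 2-leaf stage, and plants stayed in the greenhouse for twelve to sixteen days before scoring.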

smallflower flatsedge = assay: Test B flood test smallflower flatsedge; type: in vivo, Cyperus difformis
Method in brief: as §2

duck salad = assay: Test B flood test duck salad; type: in vivo, Heteranthera limosa
Method in brief: as §2

bamyardgrass = assay: Test B flood test barnyardgrass; type: in vivo, Echinochloa crus-galli
Method in brief: as §2

[1] = Postemergence, Rate 62 g/ha, scale 0 to 10, 0 is no effect, 10 is complete control
[2] = Postemergence, Rate 250 g/ha, scale 0 to 10, 0 no effect, 10 complete control
[3] = Preemergence, Rate 62 g/ha, scale 0 to 10 (0 no effect, 10 complete control)
[4] = Preemergence, Rate 125 g/ha, scale 0 to 10 (0 no effect, 10 complete control)
[5] = Preemergence, Rate 250 g/ha, scale of 0 to 10 where 0 is no effect and 10 is complete control
[6] = Preemergence, Rate 500 g/ha, scale 0 (no effect) to 10 (complete control)
[7] = Rate 125 g/ha, Postemergence, scale 0 to 10, 0 no effect, 10 complete control
[8] = Rate 500 g/ha, Postemergence, scale 0 to 10, 0 no effect, 10 complete control
[9] = Rate 125 g/ha, Postemergence section (flood test species), scale 0 to 10, 0 no effect, 10 complete control
[10] = Rate 500 g/ha, listed under Postemergence (flood test species), scale 0 to 10, 0 no effect, 10 complete control
[11] = flood test, listed under Postemergence, Rate 250 g/ha, scale 0 to 10, 0 no effect, 10 complete control

For `Cc1cccc(C(C)C)c1-n1c(=O)on(C(=O)N(c2ccc(Cl)cc2)C(C)C)c1=O` [Compound 64], the “Blackgrass plant response rating” value (blackgrass; [1]) was 0, the “Blackgrass plant response rating” value (blackgrass; [2]) was 0 and the “Blackgrass plant response rating” value (blackgrass; [3]) was 0. For the same compound, the “Plant response rating, Blackgrass” value (blackgrass; [4]) was 0, the “Plant response rating, Blackgrass” value (blackgrass; [5]) was 0 and the “Blackgrass plant response rating” value (blackgrass; [6]) was 0. For the same compound, the “Blackgrass plant response rating” value (blackgrass; [7]) was 0, the “Blackgrass plant response rating” value (blackgrass; [8]) was 0 and the “B. signalgrass plant response rating” value (surinam grass; [1]) was 0. For the same compound, the “B. signalgrass plant response rating” value (surinam grass; [2]) was 0, the “B. signalgrass plant response rating” value (surinam grass; [3]) was 0 and the “Plant response rating, B. signalgrass” value (surinam grass; [4]) was 0. The “Plant response rating, B. signalgrass” value (surinam grass; [5]) was 0, the “B. signalgrass plant response rating” value (surinam grass; [6]) was 0 and the “B. signalgrass plant response rating” value (surinam grass; [7]) was 0. For the same compound, the “B. signalgrass plant response rating” value (surinam grass; Rate 500 g/ha, Postemergence, scale of 0 to 10 where 0 is no effect and 10 is complete control) was 0, the “Cocklebur plant response rating” value (cocklebur; [1]) was 0 and the “Cocklebur plant response rating” value (cocklebur; [2]) was 0. The “Cocklebur plant response rating” value (cocklebur; [3]) was 0, the “Plant response rating, Cocklebur” value (cocklebur; [4]) was 0 and the “Plant response rating, Cocklebur” value (cocklebur; [5]) was 0. For the same compound, the “Cocklebur plant response rating” value (cocklebur; [6]) was 0, the “Cocklebur plant response rating” value (cocklebur; [7]) was 0 and the “Cocklebur plant response rating” value (cocklebur; [8]) was 0. For the same compound, the “Corn plant response rating” value (corn; [1]) was 0, the “Corn plant response rating” value (corn; [2]) was 0 and the “Corn plant response rating” value (corn; [3]) was 0. For the same compound, the “Plant response rating, Corn” value (corn; [4]) was 0, the “Plant response rating, Corn” value (corn; [5]) was 0 and the “Corn plant response rating” value (corn; [6]) was 0. For the same compound, the “Corn plant response rating” value (corn; [7]) was 0, the “Corn plant response rating” value (corn; [8]) was 0 and the “Crabgrass plant response rating” value (crabgrass; [1]) was 0. The “Crabgrass plant response rating” value (crabgrass; [2]) was 0, the “Crabgrass plant response rating” value (crabgrass; [3]) was 0 and the “Plant response rating, Crabgrass” value (crabgrass; [4]) was 0. The “Plant response rating, Crabgrass” value (crabgrass; [5]) was 2, the “Crabgrass plant response rating” value (crabgrass; [6]) was 3 and the “Crabgrass plant response rating” value (crabgrass; [7]) was 0. The “Crabgrass plant response rating” value (crabgrass; [8]) was 0, the “Giant foxtail plant response rating” value (giant foxtail; [1]) was 0 and the “Giant foxtail plant response rating” value (giant foxtail; [2]) was 0. For the same compound, the “Giant foxtail plant response rating” value (giant foxtail; [3]) was 0, the “Plant response rating, Giant foxtail” value (giant foxtail; [4]) was 0 and the “Plant response rating, Giant foxtail” value (giant foxtail; [5]) was 3. The “Giant foxtail plant response rating” value (giant foxtail; [6]) was 4, the “Giant foxtail plant response rating” value (giant foxtail; [7]) was 0 and the “Giant foxtail plant response rating” value (giant foxtail; [8]) was 0. The “Redroot pigweed plant response rating” value (pigweed; [1]) was 0, the “Redroot pigweed plant response rating” value (pigweed; [2]) was 0 and the “Redroot pigweed plant response rating” value (pigweed; [3]) was 0. For the same compound, the “Plant response rating, Redroot pigweed” value (pigweed; [4]) was 0, the “Plant response rating, Redroot pigweed” value (pigweed; [5]) was 0 and the “Redroot pigweed plant response rating” value (pigweed; [6]) was 0. The “Redroot pigweed plant response rating” value (pigweed; [7]) was 0, the “Redroot pigweed plant response rating” value (pigweed; [8]) was 0 and the “Rape plant response rating” value (rape; [1]) was 0. The “Rape plant response rating” value (rape; [2]) was 0, the “Rape plant response rating” value (rape; [3]) was 0 and the “Plant response rating, Rape” value (rape; [4]) was 0. For the same compound, the “Plant response rating, Rape” value (rape; [5]) was 0, the “Rape plant response rating” value (rape; [6]) was 0 and the “Rape plant response rating” value (rape; [7]) was 0. For the same compound, the “Rape plant response rating” value (rape; [8]) was 0, the “Soybean plant response rating” value (soybean; [1]) was 0 and the “Soybean plant response rating” value (soybean; [2]) was 0. For the same compound, the “Soybean plant response rating” value (soybean; [3]) was 0, the “Plant response rating, Soybean” value (soybean; [4]) was 0 and the “Plant response rating, Soybean” value (soybean; [5]) was 0. For the same compound, the “Soybean plant response rating” value (soybean; [6]) was 0, the “Soybean plant response rating” value (soybean; [7]) was 0 and the “Soybean plant response rating” value (soybean; [8]) was 1. The “Sugarbeets plant response rating” value (sugar beet; [1]) was 0, the “Sugarbeets plant response rating” value (sugar beet; [2]) was 0 and the “Sugarbeets plant response rating” value (sugar beet; [3]) was 0. The “Plant response rating, Sugarbeets” value (sugar beet; [4]) was 0, the “Plant response rating, Sugarbeets” value (sugar beet; [5]) was 0 and the “Sugarbeets plant response rating” value (sugar beet; [6]) was 0. The “Sugarbeets plant response rating” value (sugar beet; [7]) was 0, the “Sugarbeets plant response rating” value (sugar beet; [8]) was 0 and the “Wheat plant response rating” value (wheat; [1]) was 0. For the same compound, the “Wheat plant response rating” value (wheat; [2]) was 0, the “Wheat plant response rating” value (wheat; [3]) was 0 and the “Plant response rating, Wheat” value (wheat; [4]) was 0. For the same compound, the “Plant response rating, Wheat” value (wheat; [5]) was 0, the “Wheat plant response rating” value (wheat; [6]) was 0 and the “Wheat plant response rating” value (wheat; [7]) was 0. The “Wheat plant response rating” value (wheat; [8]) was 0, the “Nutsedge plant response rating” value (purple nutsedge; [1]) was 0 and the “Nutsedge plant response rating” value (purple nutsedge; [2]) was 0. The “Nutsedge plant response rating” value (purple nutsedge; [3]) was 0, the “Plant response rating, Nutsedge” value (purple nutsedge; [4]) was 0 and the “Plant response rating, Nutsedge” value (purple nutsedge; [5]) was 0. The “Nutsedge plant response rating” value (purple nutsedge; [7]) was 0, the “Nutsedge plant response rating” value (purple nutsedge; [8]) was 0 and the “Rice plant response rating” value (rice; [1]) was 0. The “Rice plant response rating” value (rice; [9]) was 0, the “Rice plant response rating” value (rice; [10]) was 0 and the “Rice plant response rating” value (rice; [11]) was 0. The “S. Flatsedge plant response rating” value (smallflower flatsedge; [1]) was 0, the “S. Flatsedge plant response rating” value (smallflower flatsedge; [9]) was 0 and the “S. Flatsedge plant response rating” value (smallflower flatsedge; [10]) was 0. The “S. Flatsedge plant response rating” value (smallflower flatsedge; [11]) was 0, the “Ducksalad plant response rating” value (duck salad; [1]) was 0 and the “Ducksalad plant response rating” value (duck salad; [9]) was 0. The “Ducksalad plant response rating” value (duck salad; [10]) was 0, the “Ducksalad plant response rating” value (duck salad; [11]) was 0 and the “Barnyardgrass plant response rating” value (bamyardgrass; [1]) was 0. The “Barnyardgrass plant response rating” value (bamyardgrass; [9]) was 0, the “Barnyardgrass plant response rating” value (bamyardgrass; [10]) was 0 and the “Barnyardgrass plant response rating” value (bamyardgrass; [11]) was 0.
